Active and inactive are the calls of the source. No cut-off for these calls is given here.
Columns and labels:
[1] = Metabolic stability in human hepatocyte assessed as extraction ratio at 4 hrs; format: ADME, cell-based; details: hepatocytes
[2] = Cytotoxicity against human CEM-SS cells by XTT assay; format: cell-based
[3] = system: Human immunodeficiency virus 1; assay: Antiviral activity against HIV1 RF infected in human CEM-SS cells assessed as inhibition of virus-induced cytopathic effect after 6 days by XTT assay; format: functional, organism-based; details: Human immunodeficiency virus 1, RF, 144 h
[4] = target: Human immunodeficiency virus type 1 integrase (Human immunodeficiency virus 1, UniProt Q7ZJM1); assay: Inhibition of HIV1 RF integrase after 50 mins by strand transfer scintillation proximity assay
Sequence of Human immunodeficiency virus type 1 integrase (Q7ZJM1 whole entry): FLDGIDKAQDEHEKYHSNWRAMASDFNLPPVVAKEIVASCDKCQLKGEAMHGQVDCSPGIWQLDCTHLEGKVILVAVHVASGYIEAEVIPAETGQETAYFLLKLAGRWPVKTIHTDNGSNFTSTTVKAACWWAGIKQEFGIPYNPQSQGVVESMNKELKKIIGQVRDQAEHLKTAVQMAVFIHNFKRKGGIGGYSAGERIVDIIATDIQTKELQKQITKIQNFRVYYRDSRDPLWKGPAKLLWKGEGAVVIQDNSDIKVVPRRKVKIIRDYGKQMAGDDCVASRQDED

[5] = Volume of distribution at steady state in dog at 1 mg/kg, iv and 5 mg/kg, po; format: ADME, organism-based, Canis lupus familiaris; details: in vivo, read-out: Vdss
[6] = Half life in dog at 1 mg/kg, iv and 5 mg/kg, po; format: ADME, organism-based, Canis lupus familiaris; details: in vivo
[7] = Plasma clearance in dog at 1 mg/kg, iv and 5 mg/kg, po; format: ADME, organism-based, Canis lupus familiaris
[8] = Oral bioavailability in dog at 1 mg/kg, iv and 5 mg/kg, po; format: ADME, organism-based, Canis lupus familiaris; details: in vivo
Cytochrome P450 3A4 = Cytochrome P450 3A4 (Homo sapiens, UniProt P08684); assay: Inhibition of CYP3A4; format: ADME
Sequence of Cytochrome P450 3A4 (P08684 whole entry): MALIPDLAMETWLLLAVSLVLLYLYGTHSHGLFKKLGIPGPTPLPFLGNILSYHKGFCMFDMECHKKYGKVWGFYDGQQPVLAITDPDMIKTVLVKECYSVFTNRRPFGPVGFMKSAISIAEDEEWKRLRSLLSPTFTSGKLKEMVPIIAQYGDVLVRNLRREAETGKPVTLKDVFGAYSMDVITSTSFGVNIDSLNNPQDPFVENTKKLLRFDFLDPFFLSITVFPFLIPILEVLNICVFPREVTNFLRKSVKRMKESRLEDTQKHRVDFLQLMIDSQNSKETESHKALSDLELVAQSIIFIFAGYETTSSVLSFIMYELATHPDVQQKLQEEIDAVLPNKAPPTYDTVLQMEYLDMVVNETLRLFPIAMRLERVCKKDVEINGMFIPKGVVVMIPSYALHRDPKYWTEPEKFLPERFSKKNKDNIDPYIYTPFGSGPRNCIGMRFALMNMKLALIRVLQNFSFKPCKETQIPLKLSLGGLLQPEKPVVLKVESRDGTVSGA

[9] = Inhibition of matrix metalloprotease
[10] = Blood clearance in human; format: ADME, organism-based; details: whole blood
[11] = target: Voltage-gated inwardly rectifying potassium channel KCNH2 (Homo sapiens, UniProt Q12809); assay: Inhibition of human ERG
Sequence of Voltage-gated inwardly rectifying potassium channel KCNH2 (Q12809 whole entry): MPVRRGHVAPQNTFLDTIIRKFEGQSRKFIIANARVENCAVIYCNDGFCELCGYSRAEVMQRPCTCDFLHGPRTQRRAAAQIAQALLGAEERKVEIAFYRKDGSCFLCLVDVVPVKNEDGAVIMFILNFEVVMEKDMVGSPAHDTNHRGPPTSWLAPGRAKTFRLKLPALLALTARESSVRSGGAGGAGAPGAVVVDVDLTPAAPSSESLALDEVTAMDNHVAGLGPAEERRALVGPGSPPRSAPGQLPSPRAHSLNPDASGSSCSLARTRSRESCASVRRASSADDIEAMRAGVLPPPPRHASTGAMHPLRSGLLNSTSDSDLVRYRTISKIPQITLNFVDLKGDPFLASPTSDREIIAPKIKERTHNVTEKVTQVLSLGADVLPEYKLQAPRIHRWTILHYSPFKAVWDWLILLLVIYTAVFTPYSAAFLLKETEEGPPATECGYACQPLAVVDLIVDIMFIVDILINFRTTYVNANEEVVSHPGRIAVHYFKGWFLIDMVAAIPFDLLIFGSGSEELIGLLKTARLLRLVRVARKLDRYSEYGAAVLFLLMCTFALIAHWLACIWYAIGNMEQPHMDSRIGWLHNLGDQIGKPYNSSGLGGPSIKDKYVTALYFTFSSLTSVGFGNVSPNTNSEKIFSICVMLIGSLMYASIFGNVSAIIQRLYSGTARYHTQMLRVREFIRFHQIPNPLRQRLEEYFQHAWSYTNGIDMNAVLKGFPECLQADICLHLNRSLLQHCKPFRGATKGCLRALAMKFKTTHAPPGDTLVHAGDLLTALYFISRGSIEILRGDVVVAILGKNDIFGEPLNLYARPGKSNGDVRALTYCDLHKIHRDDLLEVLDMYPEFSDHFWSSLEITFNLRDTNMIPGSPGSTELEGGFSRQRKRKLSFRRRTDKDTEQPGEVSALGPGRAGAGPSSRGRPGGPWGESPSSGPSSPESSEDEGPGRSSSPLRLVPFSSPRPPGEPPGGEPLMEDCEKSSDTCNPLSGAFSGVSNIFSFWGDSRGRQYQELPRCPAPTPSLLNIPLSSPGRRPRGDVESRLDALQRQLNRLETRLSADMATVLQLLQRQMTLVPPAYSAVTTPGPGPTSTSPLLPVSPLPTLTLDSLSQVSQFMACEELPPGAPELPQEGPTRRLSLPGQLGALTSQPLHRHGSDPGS

Cytochrome P450 2C9 = Cytochrome P450 2C9 (Homo sapiens, UniProt P11712); assay: Inhibition of CYP2C9; format: ADME
Sequence of Cytochrome P450 2C9 (P11712 whole entry): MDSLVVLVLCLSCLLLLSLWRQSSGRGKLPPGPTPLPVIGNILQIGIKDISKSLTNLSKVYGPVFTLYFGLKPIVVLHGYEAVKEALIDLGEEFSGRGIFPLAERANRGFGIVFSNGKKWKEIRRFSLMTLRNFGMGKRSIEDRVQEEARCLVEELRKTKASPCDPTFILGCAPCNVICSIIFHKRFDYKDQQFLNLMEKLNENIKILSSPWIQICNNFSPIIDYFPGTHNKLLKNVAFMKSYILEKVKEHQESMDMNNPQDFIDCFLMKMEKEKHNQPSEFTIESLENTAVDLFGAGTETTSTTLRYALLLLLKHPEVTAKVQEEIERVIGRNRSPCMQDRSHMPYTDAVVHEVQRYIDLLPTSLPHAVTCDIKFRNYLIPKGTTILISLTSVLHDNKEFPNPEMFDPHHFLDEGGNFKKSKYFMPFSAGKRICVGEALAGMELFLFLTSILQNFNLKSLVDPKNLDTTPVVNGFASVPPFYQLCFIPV

Cytochrome P450 2C8 = target: T1, Cytochrome P450 2C8 (Homo sapiens, UniProt P10632); assay: Inhibition of CYP2C8; format: ADME
T1 sequence (P10632 whole entry): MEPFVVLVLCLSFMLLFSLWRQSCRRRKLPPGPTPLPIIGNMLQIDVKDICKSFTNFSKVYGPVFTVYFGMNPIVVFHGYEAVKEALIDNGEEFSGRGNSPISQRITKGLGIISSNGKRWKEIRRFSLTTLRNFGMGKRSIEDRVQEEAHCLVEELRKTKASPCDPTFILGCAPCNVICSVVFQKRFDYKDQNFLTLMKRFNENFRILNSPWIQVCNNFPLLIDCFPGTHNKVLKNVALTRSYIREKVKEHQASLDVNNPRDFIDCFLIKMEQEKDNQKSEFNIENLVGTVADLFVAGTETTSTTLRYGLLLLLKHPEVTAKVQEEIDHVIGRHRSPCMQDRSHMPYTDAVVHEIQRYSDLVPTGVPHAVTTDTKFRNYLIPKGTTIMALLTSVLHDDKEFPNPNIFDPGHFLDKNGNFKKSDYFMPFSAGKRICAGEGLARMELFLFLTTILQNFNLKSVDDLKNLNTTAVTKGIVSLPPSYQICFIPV

Hepacivirus hominis = assay: Inhibition of HCV RNA-directed RNA polymerase
[12] = Inhibition of magnesium dependent protein kinase
Cytochrome P450 1A2 = target: T2, Cytochrome P450 1A2 (Homo sapiens, UniProt P05177); assay: Inhibition of CYP1A2; format: ADME
T2 sequence (P05177 whole entry): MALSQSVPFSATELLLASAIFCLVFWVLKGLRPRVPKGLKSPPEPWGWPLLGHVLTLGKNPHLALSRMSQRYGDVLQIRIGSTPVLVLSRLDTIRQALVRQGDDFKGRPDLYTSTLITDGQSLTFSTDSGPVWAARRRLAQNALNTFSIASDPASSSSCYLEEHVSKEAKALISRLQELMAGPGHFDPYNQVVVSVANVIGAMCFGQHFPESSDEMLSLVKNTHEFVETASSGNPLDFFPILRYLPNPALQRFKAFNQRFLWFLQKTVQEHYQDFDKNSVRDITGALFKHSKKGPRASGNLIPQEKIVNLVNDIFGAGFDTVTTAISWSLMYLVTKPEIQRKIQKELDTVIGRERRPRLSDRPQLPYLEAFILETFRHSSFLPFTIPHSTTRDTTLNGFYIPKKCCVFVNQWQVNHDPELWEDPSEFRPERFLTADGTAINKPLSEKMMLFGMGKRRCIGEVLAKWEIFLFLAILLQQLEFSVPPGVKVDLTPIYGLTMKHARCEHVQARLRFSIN

Cytochrome P450 2D6 = Cytochrome P450 2D6 (Homo sapiens, UniProt P10635); assay: Inhibition of CYP2D6; format: ADME
Sequence of Cytochrome P450 2D6 (P10635 whole entry): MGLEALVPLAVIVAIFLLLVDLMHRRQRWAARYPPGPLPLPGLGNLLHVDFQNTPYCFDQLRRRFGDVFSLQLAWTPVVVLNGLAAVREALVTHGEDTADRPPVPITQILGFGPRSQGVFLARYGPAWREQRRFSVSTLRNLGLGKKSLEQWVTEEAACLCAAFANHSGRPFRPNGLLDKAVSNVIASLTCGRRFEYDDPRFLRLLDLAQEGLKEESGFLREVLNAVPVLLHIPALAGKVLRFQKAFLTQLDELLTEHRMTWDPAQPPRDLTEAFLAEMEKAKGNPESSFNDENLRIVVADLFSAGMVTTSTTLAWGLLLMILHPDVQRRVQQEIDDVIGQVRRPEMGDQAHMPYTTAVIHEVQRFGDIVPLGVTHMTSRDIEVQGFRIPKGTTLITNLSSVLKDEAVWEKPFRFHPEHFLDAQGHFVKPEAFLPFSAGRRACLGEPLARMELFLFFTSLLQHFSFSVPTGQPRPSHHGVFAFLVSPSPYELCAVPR

[13] = Oral bioavailability in human; format: ADME, organism-based; details: in vivo
[14] = Volume of distribution at steady state in human; format: ADME, organism-based; details: in vivo, read-out: Vdss
Cytochrome P450 2C19 = Cytochrome P450 2C19 (Homo sapiens, UniProt P33261); assay: Inhibition of CYP2C19; format: ADME
Sequence of Cytochrome P450 2C19 (P33261 whole entry): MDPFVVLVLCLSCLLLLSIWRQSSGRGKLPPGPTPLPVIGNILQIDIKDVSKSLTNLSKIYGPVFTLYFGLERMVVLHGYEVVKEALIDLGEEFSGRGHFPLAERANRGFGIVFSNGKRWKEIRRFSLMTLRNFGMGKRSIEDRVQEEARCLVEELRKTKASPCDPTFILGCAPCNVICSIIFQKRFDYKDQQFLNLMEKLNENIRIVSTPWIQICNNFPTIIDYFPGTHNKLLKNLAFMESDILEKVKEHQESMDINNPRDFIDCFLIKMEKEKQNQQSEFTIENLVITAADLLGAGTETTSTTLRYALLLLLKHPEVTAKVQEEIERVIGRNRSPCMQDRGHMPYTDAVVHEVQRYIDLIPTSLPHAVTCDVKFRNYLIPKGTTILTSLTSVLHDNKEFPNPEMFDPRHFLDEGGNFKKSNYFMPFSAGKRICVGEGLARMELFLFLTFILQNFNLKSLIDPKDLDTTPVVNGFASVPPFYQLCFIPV

SMILES	hepatic extraction ratio at 4 h [1]	IC50 [4]	CC50 [2]	EC50 [3]	also measured
CN(O)C(=O)c1cc2ccn(Cc3ccc(F)cc3F)c2cn1	–	250 nM	200000 nM	39 nM	–
CN(O)C(=O)c1cc2c(C(=O)NCCN3CCOCC3)cn(Cc3ccc(F)cc3)c2cn1	0.25	503 nM	32000 nM	210 nM	–
CN(O)C(=O)c1cc2c(C(=O)N3CCC[C@@H]3CO)cn(Cc3ccc(F)cc3)c2cn1	0.2	319 nM	> 32000 nM	170 nM	–
CN(O)C(=O)c1cc2c(CN3CCNC(=O)C3)cn(Cc3ccc(F)cc3)c2cn1	0.3	388 nM	> 100000 nM	150 nM	Vd [5]: 1.8 L/kg; half-life [6]: 1.27 h; clearance [7]: 24 mL/min/kg; bioavailability [8]: 20%
CCOCCOCc1cn(Cc2ccc(F)cc2)c2cnc(C(=O)N(C)O)cc12	0.57	308 nM	81000 nM	57 nM	–
CN(O)C(=O)c1cc2c(CN3CCC[C@H]3C(N)=O)cn(Cc3ccc(F)cc3)c2cn1	–	–	216000 nM	–	IC50 (Cytochrome P450 3A4): > 30000 nM; IC50 [9]: > 50000 nM; clearance [10]: 5.5 mL/min/kg; Vd [5]: 2.32 L/kg; IC50 [11]: > 30000 nM; IC50 (Cytochrome P450 2C9): > 30000 nM; IC50 (Cytochrome P450 2C8): > 30000 nM; inhibition (Hepacivirus hominis): inactive; IC50 [12]: > 1000 nM; IC50 (Cytochrome P450 1A2): > 30000 nM; IC50 (Cytochrome P450 2D6): > 30000 nM; half-life [6]: 6.2 h; bioavailability [13]: 41%; clearance [7]: 15 mL/min/kg; Vd [14]: 2.15 L/kg; IC50 (Cytochrome P450 2C19): > 30000 nM; bioavailability [8]: 53%
CN(O)C(=O)c1cc2ccn(Cc3ccc(F)cc3)c2cn1	–	250 nM	135000 nM	–	–
CN(O)C(=O)c1cc2c(COC3CCOCC3)cn(Cc3ccc(F)cc3)c2cn1	0.86	313 nM	> 100000 nM	57 nM	–
CN1CCN(Cc2cn(Cc3ccc(F)cc3)c3cnc(C(=O)N(C)O)cc23)CC1	0.55	534 nM	> 224000 nM	220 nM	–
CC(C)NC(=O)c1cn(Cc2ccc(F)cc2)c2cnc(C(=O)N(C)O)cc12	0.25	251 nM	> 100000 nM	110 nM	–
CN(O)C(=O)c1cc2c(CN3CCC[C@@H]3C(N)=O)cn(Cc3ccc(F)cc3)c2cn1	–	–	> 100000 nM	80 nM	–

Now from value to compound, other results behind:

hepatic extraction ratio at 4 h [1]	IC50 [4]	SMILES	CC50 [2]	EC50 [3]	also measured
1	145 nM	CN(O)C(=O)c1cc2c(CO)cn(Cc3ccc(F)cc3)c2cn1	> 266000 nM	54 nM	–
1	242 nM	COCc1cn(Cc2ccc(F)cc2)c2cnc(C(=O)N(C)O)cc12	266000 nM	41 nM	–
1	340 nM	CN(O)C(=O)c1cc2c(CCCO)cn(Cc3ccc(F)cc3)c2cn1	> 10000 nM	41 nM	–
0.51	382 nM	COCCOCc1cn(Cc2ccc(F)cc2)c2cnc(C(=O)N(C)O)cc12	> 100000 nM	29 nM	–
0.55	1420 nM	CN(O)C(=O)c1cc2c(CN3CCC(O)C3)cn(Cc3ccc(F)cc3)c2cn1 (stereo not given)	> 100000 nM	747 nM	–
0.97	552 nM	COCCOCCCc1cn(Cc2ccc(F)cc2)c2cnc(C(=O)N(C)O)cc12	> 10000 nM	220 nM	–
0.98	559 nM	CN(O)C(=O)c1cc2c(CCCN3CCOCC3)cn(Cc3ccc(F)cc3)c2cn1	> 10000 nM	470 nM	–

— ChEMBL document CHEMBL1287722, “Azaindole N-methyl hydroxamic acids as HIV-1 integrase inhibitors-II. The impact of physicochemical properties on ADME and PK” (Bioorg Med Chem Lett, 2010)
